Molecular target: T1, Glycogen phosphorylase, liver form (Homo sapiens, UniProt P06737)
T1 sequence (P06737 whole entry): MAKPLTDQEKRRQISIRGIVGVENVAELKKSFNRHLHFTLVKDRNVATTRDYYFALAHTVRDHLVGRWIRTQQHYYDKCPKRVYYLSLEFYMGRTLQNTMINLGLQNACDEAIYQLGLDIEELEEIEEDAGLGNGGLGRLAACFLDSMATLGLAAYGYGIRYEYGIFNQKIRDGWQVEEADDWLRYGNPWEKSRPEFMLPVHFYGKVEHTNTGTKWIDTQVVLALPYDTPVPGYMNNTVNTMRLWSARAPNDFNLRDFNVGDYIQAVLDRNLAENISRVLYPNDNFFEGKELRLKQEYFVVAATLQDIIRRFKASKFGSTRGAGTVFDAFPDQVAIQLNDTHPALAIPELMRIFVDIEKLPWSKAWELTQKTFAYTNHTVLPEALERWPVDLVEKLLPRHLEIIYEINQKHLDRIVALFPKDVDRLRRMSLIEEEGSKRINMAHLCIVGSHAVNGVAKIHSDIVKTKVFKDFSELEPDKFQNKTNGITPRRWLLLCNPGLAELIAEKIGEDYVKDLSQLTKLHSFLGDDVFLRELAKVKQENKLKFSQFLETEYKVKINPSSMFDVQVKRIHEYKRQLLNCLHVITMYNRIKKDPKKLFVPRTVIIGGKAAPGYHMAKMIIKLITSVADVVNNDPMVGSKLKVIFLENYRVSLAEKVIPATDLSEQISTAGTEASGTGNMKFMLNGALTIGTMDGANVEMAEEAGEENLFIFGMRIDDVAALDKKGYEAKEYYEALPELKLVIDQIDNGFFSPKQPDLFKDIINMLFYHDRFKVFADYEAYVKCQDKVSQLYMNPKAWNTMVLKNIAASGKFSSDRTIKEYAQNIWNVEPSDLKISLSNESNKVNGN
Assay: Inhibition Activity Assay
Conditions: pH 7.2; 22 °C
Procedure: Human liver glycogen phsphorylase (HLGP) activity was measured in the direction of glycogen synthesis by the release of phosphate from glucose-1-phosphate.

IC50 | Compound
0.006 µM | Cc1ccc2[nH]c(C(=O)NCCOCCOCCNC(=O)c3cc4cc(Cl)ccc4[nH]3)cc2c1 [CP-526,423]
12.5 µM | COCCNC(=O)c1cc2cc(Cl)ccc2[nH]1
